Measured values published in EP0189629A1, “Method of treatment of viral diseases in plants utilizing ribavirin” (VIRATEK, INC., priority 1985, dated 1986).
One block for each compound: values may come before it.

Assays:
[1] = Solubility; type: physicochemical; conditions: for solubility in other solvents: alcohol (5-15% by volume) and water, DMF (5-25%) and water, DMSO (5-25%) and water, DMSO alone
Text: Another potential use of Ribavirin is to eliminate viruses or maintain plant tissues in a virus-free state during routine propagation techniques that are presently being developed. One example is the use of encapsulated somatic embryos to propagate somatic tissues to prevent sexual variation or the need for more extensive plant breeding. Ribavirin may be especially useful in maintaining virus-free plants by its application to somatic embryos. Certain plants can be propagated asexually precluding genetic changes in progeny which might otherwise occur by sexual propagation from seed. Treatment of somatic embryos with Ribavirin prior to encapsulation will preserve plant progeny in a virus--free state. The compound could also be used in combination with newly developed plant genetic engineering procedures where the Ribavirin could be incorporated into normal propagation procedures. […] The compounds are also soluble in solutions of alcohol (5-15% by volume) and water, dimethylformamide (DMF) (5-25%) and water, dimethyl sulfoxide (DMSO) (5-25%) and water and dimethyl sulfoxide alone.

[2] = tested on: TMV; test: TMV multiplication in inoculated unorganized callus cells; type: cell-based; conditions: callus cells inoculated with TMV, single agent
[3] = tested on: TMV; test: TMV multiplication in leaf cells, treatment soon after inoculation; type: cell-based; conditions: treatment began soon after inoculation
[4] = tested on: orchid strain of tobacco mosaic virus (TMV-0); test: Cymbidium orchid tissue culture, virus titers by electron micrography and serological test; type: cell-based; conditions: 30, 100, 300 and 1,000 ppm Ribavirin; 200 ppm DMSO in all treatments
Experimental: Ribavirin concentrations from 30 to 1,000 ppm have been included in tissue culture media in which orchids are being cloned, and used to drench and spray whole orchid plants in a controlled way. Virus titers were determined by transmission electron micrography and ELIZA serological tests. In order to enhance penetration of Ribavirin, 200 ppm of Dimethylsulfoxide - (DMSO) was included in all treatments including controls.

[5] = tested on: Odontoglossum ring spot virus (ORSV); test: ORSV-infected Cymbidium meristem/protocorm culture, ELISA; type: cell-based
Experimental: Odontoglossum ring spot virus (ORSV) - infected Cymbidium mother plants have been regenerated in the presence of Ribavirin. Meristems or protocorms of Cymbidium were cultured on liquid or solid (0.7% agar) KNUDSON C medium, as modified for orchids by MOREL.
(§1) Although the proportion of healthy plants obtained by this technique is usually high, it requires complex media and the rate of regrowth of meristematic explants is low. Menstems were cultured on MURASHIGE and SKOOG medium- supplanted with vitamin 85, and with growth substances. Other explants (shoots, fragment of shoots, stem--fragments) were grown on MURASHIGE and SKOOG medium without addition of growth substances. The presence of potato virus Y in plant material was controlled before and after in vitro culture, by biological indexing on tobacco test plants, or by serology (ELISA). Results thus obtained confirmed the elimination of potato virus Y from infected plants by meristem culture. […] Cymbidium protocorms infected with odontoglossum ring spot virus were placed for proliferation on liquid KNUDSON C medium containing 0, 10, 25 or 40 ppm of Ribavirin.

[6] = tested on: lily symptomless virus (LSV) and tulip breaking virus (TBV); test: Lily meristem culture, virus testing by ELISA, immuno-diffusion drop test and electron microscopy; type: cell-based; conditions: 40.0 uM Ribavirin
Experimental: Other experiments were performed with Lilium Lon- oifiorum "Arai" which has been described as difficult to obtain free of virus, and with Lilium"Enchantment", both containing lily symptomless virus (LSV) and tulip breaking virus (TBV). Meristems, induced on media with or without Ribavirin, were isolated and subsequently cultured on a medium without Ribavirin. […] Leaf samples of the plants were tested for the presence of LSV and TBV by means of ELISA, the immuno-diffusion drop test and electron microscopy.

[7] = tested on: plant virus groups; test: Spectrum of activity against plant virus groups and plant viral diseases
[8] = tested on: potato virus Y; test: In vitro culture of meristems and other explants of potato virus Y-infected potato; type: cell-based
Experimental: as §1

[9] = tested on: protocorms of healthy Cymbidium; test: Growth of healthy Cymbidium protocorms on medium containing Ribavirin; type: cell-based
Experimental: Meristems or protocorms of Cymbidium were cultured on liquid or solid (0.7% agar) KNUDSON C medium, as modified for orchids by MOREL.

[10] = tested on: Lilium; test: Lily meristem culture, meristem formation and bulb growth; type: cell-based
[11] = tested on: TMV; test: TMV-infected tobacco callus growth and shoot regeneration on medium containing chemical; type: cell-based

solubility in other solvents [1]: also soluble
solubility in water [1]: soluble in water
SMILES: CC(=O)OC[C@H]1O[C@@H](n2cnc(C(N)=O)n2)[C@H](OC(C)=O)[C@@H]1OC(C)=O [2,3,5--triacetyl]

solubility in other solvents [1]: also soluble
solubility in water [1]: soluble in water
SMILES: CCCC(=O)OC[C@H]1O[C@@H](n2cnc(C(N)=O)n2)[C@H](O)[C@@H]1O [5'-butyryl]

SMILES: Nc1ncnc2c1ncn2[C@@H]1O[C@H](CO)[C@@H](O)[C@@H]1O [Adenine Arabinoside]
multiplication of TMV in unorganized callus cells [2]: neither inhibited
multiplication of TMV in leaf cells [3]: effectively inhibited

SMILES: NC(=O)c1ncn([C@@H]2O[C@H](CO)[C@@H](O)[C@H]2O)n1 [Ribavirin, 1-β-D-ribofuranosyl-1,2,4-triazole-3-carboxamide]
virus status of new growth of Cymbidium tissue cultures [4]: developed virus-free new growth
multiplication of ORSV in Cymbidium protocorms ([5]; 10 ppm, liquid KNUDSON C medium, three monthly subcultures): did not inhibit
virus concentration in Cymbidium protocorms ([5]; 25 ppm, liquid KNUDSON C medium, monthly subcultures): decreased progressively
ORSV detection by ELISA test ([5]; from the sixth subculture, regeneration in the presence of Ribavirin): no longer detectible
multiplication of TMV in unorganized callus cells [2]: neither inhibited
percentage of plants infected with LSV and/or TBV ([6]; L. "Enchantment"): the effect is less clear
percentage of plants infected with LSV and/or TBV ([6]; L. Lonaiflorum "Arai"): reduced
effectiveness against plant viral diseases ([7]; crops and viruses listed in the 2nd table and the 3rd table): effective
activity against plant virus groups ([7]; potexviruses, potyviruses, closteroviruses, tymoviruses, carlaviruses, cucumoviruses, ilarviruses, tombusviruses, tomato spotted wilt virus, alfalfa mosaic virus): active
sensitivity of plant virus groups to Ribavirin ([7]; tobamovirus and bromovirus groups): only slightly sensitive
regeneration rate in meristem culture ([8]; 10, 25 and 50 ppm, meristems of potato virus Y-infected potato): enhanced the regeneration rate
number of virus-free plants obtained after in vitro culture ([8]; 25 or 50 ppm, shoots, shoot pieces and stem-fragments, three to four weeks): significantly enhanced
phytotoxicity in meristem culture ([8]; virus-inhibiting concentrations, meristem culture of potato virus Y-infected potato): phytotoxicity at virus-inhibiting concentrations
growth of healthy Cymbidium protocorms ([9]; 50 ppm, after four weeks of culture): became necrotic
growth of healthy Cymbidium protocorms ([9]; media containing 0, 10 or 25 ppm): grew well
bulb growth ([10]; 400.0 uM): severely reduced
number of adventitiously formed meristems and average bulb weight ([10]; concentration range 0.0-40.0 uM): not significantly influenced
multiplication of TMV in leaf cells [3]: effectively inhibited
TMV in newly developed tobacco callus or shoots ([11]; callus from TMV-infected pith tissue grown on medium with Ribavirin): still contained TMV
tobacco callus growth and differentiation ([11]; concentration twice that required to inhibit TMV multiplication in leaf disks): grew and differentiated
solubility in other solvents [1]: also soluble
solubility in water [1]: soluble in water
